Tests used:
[1] = tested on: Male Sprague-Dawley rats; assay: Inverted screen test (muscle relaxation); type: in vivo; details: for muscle relaxation / motor impairment in inverted screen: i.p. 30 minutes prior, diazepam 3, 10, 30 mg/kg, KRM-II-81 10, 30, 60 mg/kg, HZ-166 30 mg/kg
Protocol: (§1) Results were analyzed using ANOVA (Dunnett's test: *P<0.05).
The inverted screen test is used to measure whether or not a test compound induces muscle relaxation. When a test subject is placed on a wire screen which is then inverted, the reaction is to climb to the opposite side so they are no longer hanging upside down. If a compound promotes muscle relaxation, the test subjects will either fall off, or hang onto the screen without being able to climb to the opposite side.
Rats were placed onto the top of a wire screen, which was then inverted so that the rats were hanging upside down. […] Results were analyzed using ANOVA (Dunnett's test: *P<0.05).

[2] = tested on: Male NIH Swiss mice; details: previously shown; cited from earlier work
[3] = tested on: rhesus monkeys; details: previously shown; cited from earlier work
[4] = Liver microsomal stability, human; type: in vitro ADME; details: 37° C., 4 μM compound, 30 minutes
Protocol: (§2) In vitro metabolism studies were done in mouse, rat, human, and dogs cells (TABLE 2).
(§3) In vitro liver microsomal studies were completed to measure the stability of the compounds against degradation in various species' liver microsomes.
(§4) Compound was incubated in hepatic microsomes over a 30-minute incubation period at 37° C. Incubations both with and without NADPH (2 mM) were performed in a 96-well plate format. The reaction was initiated with the addition of substrate and was terminated by protein precipitation. All incubations were performed using a final substrate concentration of 4 μM in 50 mM sodium phosphate buffer, pH 7.4. The final organic solvent content was 0.5% acetonitrile and 0.02% DMSO. The amount of enzyme present was fixed at 1.11 mg/mL protein irrespective of the species of microsomes used. Samples were analyzed by LC/MS-MS to determine the percent loss in the NAPDH incubations relative to the NADPH free incubations.

[5] = Liver microsomal stability, rat; type: in vitro ADME; details: 37° C., 4 μM compound, 30 minutes
Protocol: as §2, §3, §4

[6] = Liver microsomal stability, dog; type: in vitro ADME; details: 37° C., 4 μM compound, 30 minutes
Protocol: as §2, §3, §4

[7] = Pharmacokinetics after 10 mg/kg P.O. dose, mice; type: in vivo; details: mouse, blood, po
Source text: Although these are different species, the numbers can still be compared.

[8] = tested on: Male Sprague-Dawley rats; assay: scMET-induced seizure protection, rats; type: in vivo; details: pentylenetetrazole 35 mg/kg
Protocol: A 35 mg/kg subcutaneous dose of pentylenetetrazole was given and the percent outcome of seizure was recorded. Results were analyzed using ANOVA (Dunnett's test: *P<0.05).
Test subjects were given a test compound, followed by a 35 mg/kg dose of MET and observed for convulsions (FIG. 7).
as §1

[9] = tested on: Male CD-1 mice; assay: Maximal electroshock (MES)-induced convulsion protection; type: in vivo; details: i.p. 30 minutes prior to test
Protocol: Male CD-1 mice (n=10) were dosed i.p. 30 minutes prior to being tested. Results were analyzed using ANOVA (Dunnett's test versus vehicle: *P<0.05).
The maximal electroshock (MES) assay is designed to determine how well a test compound can prevent seizures induced by applying a voltage stimuli to a mouse.
Mice were subjected to electrical induced tonic seizures and examined for anticonvulsant effects 30 minutes after treatment. Mice were then given a 7 mA electroshock using a Wahlquist Model H for 0.2 seconds and observed for the presence or absence of seizure activity. Each mouse is tested only once and euthanized immediately following the test.

[10] = tested on: Male Sprague-Dawley rats; details: has been shown; cited from earlier work
[11] = Liver microsomal stability, mouse; type: in vitro ADME; details: 37° C., 4 μM compound, 30 minutes
Protocol: as §2, §3, §4

[12] = tested on: Male Sprague-Dawley rats; details: previously shown; species not stated; cited from earlier work
[13] = tested on: Male CD-1 mice; details: previously shown; cited from earlier work
[14] = tested on: Male Sprague-Dawley rats; assay: PTZ-induced seizure threshold; type: in vivo; details: test compound 3 to 60 mg/kg, diazepam 0.1 to 1 mg/kg i.p.
Protocol: as §1
After a pretreatment of test compound, MET was intravenously administered to a test subject until a convulsions were observed.
Each animal was used only once and was euthanized post testing. Results were analyzed using ANOVA (Dunnett's test: *P<0.05).

[15] = tested on: Sprague Dawley male rats; assay: Mechanical hyperalgesia (von Frey) in CFA-induced inflammatory pain rat model; type: in vivo; details: cumulative i.p. dosing, 3 days after CFA
Protocol: Raw data (paw withdrawal threshold, expressed in g of von Frey filament) was converted to a maximal possible effect value according the following equation: % MPE=[(test threshold(g)−control threshold(g)/(pre-CFA threshold−control threshold)]×100.
Complete Freund's adjuvant (CFA) contains Mycobacterium butyricum, inducing inflammation and an increase in paw thickness. 0.1 mL of CFA was injected in the right hind paw of Sprague Dawley male rats under isoflurane anaesthesia.
Mechanical hyperalgesia. Mechanical hyperalgesia was measured 3 days after CFA treatment. Rats (n=6) were placed in elevated boxes with a mesh floor. Von Frey filaments (expressed in g) were applied perpendicularly to the hindpaws, starting with the lowest filament (1.4 g) then increased until hindpaw withdrawal was observed. After each measurement, rats received the next dose of drug (every 20 min) until the maximum threshold (26 g) was observed. For the antagonist study, rats were pretreated with the benzodiazepine site antagonist flumazenil (10 min) and then received the next dose of drug (every 20 min) until the pre-CFA threshold was observed.
Drugs. The following drugs were used: HZ166, KRM-II-18B, and KRM-II-81, and were dissolved in a mixture containing 20% Dimethyl sulfoxide (DMSO), 10% Emulphor-620 (Rhodia Inc.), and 70% of 0.9% saline. Flumazenil (purchased from Cayman Chemical Company, MI) was dissolved in a mixture containing 10% ethanol, 40% propylene glycol, and 50% sterile water. Midazolam (Akorn, Inc.) was dissolved in 0.9% saline. Doses were expressed as the weight of the drug in milligrams per kilogram of body weight and drugs were administered intraperitoneally.

[16] = target: GABAA/α3 (Homo sapiens, UniProt P18507+P34903); details: as disclosed in Huang, et al., J. Med. Chem. 2000; cited from earlier work
[17] = target: GABAA/α1 receptors (Homo sapiens, UniProt P14867+P18507); details: as disclosed in Huang, et al., J. Med. Chem. 2000; cited from earlier work
[18] = target: GABAA/α5 receptors (Homo sapiens, UniProt P18507+P31644); details: as disclosed in Huang, et al., J. Med. Chem. 2000; cited from earlier work
[19] = target: GABAA/α2 (Homo sapiens, UniProt P18507+P47869); details: as disclosed in Huang, et al., J. Med. Chem. 2000; cited from earlier work
GABAA/α2, sequence (P47869 29-451): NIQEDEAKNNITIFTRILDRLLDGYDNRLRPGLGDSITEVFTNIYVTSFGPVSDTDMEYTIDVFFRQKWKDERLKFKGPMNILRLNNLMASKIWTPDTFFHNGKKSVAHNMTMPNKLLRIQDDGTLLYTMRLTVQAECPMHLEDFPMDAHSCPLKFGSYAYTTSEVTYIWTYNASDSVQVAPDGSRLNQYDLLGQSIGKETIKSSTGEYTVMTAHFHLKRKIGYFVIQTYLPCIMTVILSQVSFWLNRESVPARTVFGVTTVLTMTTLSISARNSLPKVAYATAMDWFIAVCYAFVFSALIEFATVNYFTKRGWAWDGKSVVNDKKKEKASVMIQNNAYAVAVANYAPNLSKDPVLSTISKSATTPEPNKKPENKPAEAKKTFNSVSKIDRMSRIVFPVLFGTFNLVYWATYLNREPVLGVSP
GABAA/α2, sequence (P28472 26-473 partner): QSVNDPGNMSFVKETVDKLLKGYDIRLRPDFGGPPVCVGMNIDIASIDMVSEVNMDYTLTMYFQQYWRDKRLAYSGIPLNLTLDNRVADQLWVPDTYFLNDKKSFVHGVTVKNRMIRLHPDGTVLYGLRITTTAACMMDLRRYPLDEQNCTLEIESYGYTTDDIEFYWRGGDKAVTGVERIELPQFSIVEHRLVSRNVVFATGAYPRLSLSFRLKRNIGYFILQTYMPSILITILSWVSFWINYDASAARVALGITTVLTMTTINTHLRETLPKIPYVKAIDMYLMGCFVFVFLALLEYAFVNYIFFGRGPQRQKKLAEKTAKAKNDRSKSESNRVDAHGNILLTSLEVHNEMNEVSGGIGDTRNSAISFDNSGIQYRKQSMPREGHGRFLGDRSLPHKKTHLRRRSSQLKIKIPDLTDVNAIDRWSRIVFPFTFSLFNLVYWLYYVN
GABAA/α2, sequence (P18507 40-475): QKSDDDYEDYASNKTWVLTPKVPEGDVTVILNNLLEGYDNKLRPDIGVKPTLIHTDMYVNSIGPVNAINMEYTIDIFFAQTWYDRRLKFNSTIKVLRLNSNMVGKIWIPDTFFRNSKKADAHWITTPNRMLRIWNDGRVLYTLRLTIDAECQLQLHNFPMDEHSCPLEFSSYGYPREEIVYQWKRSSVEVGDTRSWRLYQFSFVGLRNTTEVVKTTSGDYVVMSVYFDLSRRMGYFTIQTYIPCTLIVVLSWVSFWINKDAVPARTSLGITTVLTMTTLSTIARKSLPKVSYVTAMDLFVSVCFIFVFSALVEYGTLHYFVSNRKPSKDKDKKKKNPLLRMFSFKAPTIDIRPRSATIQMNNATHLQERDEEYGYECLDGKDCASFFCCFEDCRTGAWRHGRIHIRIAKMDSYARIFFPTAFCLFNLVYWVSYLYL

GABAA/α3, sequence (P34903 29-492): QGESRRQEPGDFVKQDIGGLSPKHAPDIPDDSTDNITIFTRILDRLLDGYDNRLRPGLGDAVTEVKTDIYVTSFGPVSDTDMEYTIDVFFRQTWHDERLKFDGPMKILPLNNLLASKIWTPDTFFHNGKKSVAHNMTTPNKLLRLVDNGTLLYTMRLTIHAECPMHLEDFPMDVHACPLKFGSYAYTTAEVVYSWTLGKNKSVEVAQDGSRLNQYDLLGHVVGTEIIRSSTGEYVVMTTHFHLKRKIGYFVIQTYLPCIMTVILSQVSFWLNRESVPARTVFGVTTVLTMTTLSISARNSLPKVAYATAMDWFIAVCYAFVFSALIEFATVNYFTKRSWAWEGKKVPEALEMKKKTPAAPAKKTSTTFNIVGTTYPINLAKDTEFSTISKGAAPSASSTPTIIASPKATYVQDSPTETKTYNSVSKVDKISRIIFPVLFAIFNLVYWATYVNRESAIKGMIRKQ
GABAA/α3, sequence (P28472 26-473 partner): as the sequence (P28472 26-473 partner) above
GABAA/α3, sequence (P18507 40-475): as the sequence (P18507 40-475) above
GABAA/α1 receptors, sequence (P14867 28-456): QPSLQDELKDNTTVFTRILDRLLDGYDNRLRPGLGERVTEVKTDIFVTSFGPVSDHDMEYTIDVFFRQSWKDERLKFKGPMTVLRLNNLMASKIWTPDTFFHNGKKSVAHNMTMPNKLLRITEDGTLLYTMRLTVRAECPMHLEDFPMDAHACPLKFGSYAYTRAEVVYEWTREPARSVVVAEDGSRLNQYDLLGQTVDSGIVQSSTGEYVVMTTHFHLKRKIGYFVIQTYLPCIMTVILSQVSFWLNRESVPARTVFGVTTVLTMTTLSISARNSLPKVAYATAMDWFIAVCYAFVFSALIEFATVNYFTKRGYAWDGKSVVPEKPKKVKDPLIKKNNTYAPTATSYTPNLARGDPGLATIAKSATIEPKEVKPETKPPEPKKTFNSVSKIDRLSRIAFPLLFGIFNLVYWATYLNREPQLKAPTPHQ
GABAA/α1 receptors, sequence (P28472 26-473 partner): as the sequence (P28472 26-473 partner) above
GABAA/α1 receptors, sequence (P18507 40-475): as the sequence (P18507 40-475) above
GABAA/α5 receptors, sequence (P31644 32-462): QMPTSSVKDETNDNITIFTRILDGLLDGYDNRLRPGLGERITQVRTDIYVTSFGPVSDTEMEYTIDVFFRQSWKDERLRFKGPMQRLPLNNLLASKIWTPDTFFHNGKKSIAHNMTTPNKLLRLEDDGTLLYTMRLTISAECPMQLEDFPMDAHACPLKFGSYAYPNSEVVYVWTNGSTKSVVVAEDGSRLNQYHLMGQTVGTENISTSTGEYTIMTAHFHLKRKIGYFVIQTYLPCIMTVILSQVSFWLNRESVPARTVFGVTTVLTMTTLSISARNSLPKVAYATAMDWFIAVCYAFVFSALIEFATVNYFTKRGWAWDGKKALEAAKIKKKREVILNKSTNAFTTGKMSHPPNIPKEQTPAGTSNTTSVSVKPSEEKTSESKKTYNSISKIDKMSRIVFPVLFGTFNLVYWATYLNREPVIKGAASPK
GABAA/α5 receptors, sequence (P28472 26-473 partner): as the sequence (P28472 26-473 partner) above
GABAA/α5 receptors, sequence (P18507 40-475): as the sequence (P18507 40-475) above

C#Cc1ccc2c(c1)C(c1ccccn1)=NCc1c(C(=O)OCC)ncn1-2 [HZ-166, Ethyl-8-ethynyl-6-(pyridin-2-yl)-4H-benzo[f]imidazo[1,5-a][1,4]diazepine-3-carboxylate]
muscle relaxation / motor impairment in inverted screen [1]: Neither HZ-166 nor KRM-II-81 induced significant muscle relaxation
dose at which signs of muscle relaxation began to appear ([1]; i.p., inverted screen): 30 mg/kg
doses with no ataxic complications [2]: over 100 mg/kg
effectiveness in conflict procedure [3]: effective in rhesus monkeys
Human Liver microsome stability (reported in % remaining) [4]: 80 % remaining
Rat Liver microsome stability (reported in % remaining) [5]: 50 % remaining
Dog Liver microsome stability (reported in % remaining) [6]: 97 % remaining
Tmax [7]: 5.58 h
Cmax ([7]; read-out: Cmax (highest concentration found in blood)): 4.11 ng/mL
effect against scMET seizures at 30 mg/kg ([8]; 30 mg/kg i.p.): little effect
protection against MES-induced seizures [9]: did not
performance in von Frey filament assay [10]: perform well in this assay
Mouse Liver microsome stability (reported in % remaining) [11]: 54 % remaining
protection against scMET-induced seizures [12]: giving protection against scMET-induced seizures
effectiveness in MES assay [13]: effective in this assay
effect on seizure threshold to PTZ [14]: little protection
mechanical hyperalgesia in CFA-induced inflammatory pain [15]: dose-dependently attenuated mechanical hyperalgesia

C#Cc1ccc2c(c1)C(c1ccccc1)=NCC(=O)N2C [QH-ii-066]
Ki [16]: < 50 nM
Ki [17]: > 70 nM
Ki [18]: < 10 nM
Ki [19]: < 50 nM

CN1C(=O)CN=C(c2ccccc2)c2cc(Cl)ccc21 [diazepam, reference compound]
muscle relaxation / motor impairment in inverted screen [1]: produced full motor impairment
dose achieving significant protection against scMET seizures ([8]; i.p. 30 minutes prior): 10 mg/kg
protection against MES-induced seizures [9]: fully protected against seizure induction
effect on seizure threshold to PTZ [14]: significantly increased the seizure threshold to PTZ

From patent US10259815B2, “Gabaergic ligands and their uses” (UWM Research Foundation, Inc., priority 2015, dated 2019)
